Laboratory results from PMC8755628 (Pharmacological research, 2021).

Molecular target: MET (Homo sapiens, UniProt P08581)
Assay: MET kinase assay
Assay type: biochemical

MET, sequence (P08581 25-307): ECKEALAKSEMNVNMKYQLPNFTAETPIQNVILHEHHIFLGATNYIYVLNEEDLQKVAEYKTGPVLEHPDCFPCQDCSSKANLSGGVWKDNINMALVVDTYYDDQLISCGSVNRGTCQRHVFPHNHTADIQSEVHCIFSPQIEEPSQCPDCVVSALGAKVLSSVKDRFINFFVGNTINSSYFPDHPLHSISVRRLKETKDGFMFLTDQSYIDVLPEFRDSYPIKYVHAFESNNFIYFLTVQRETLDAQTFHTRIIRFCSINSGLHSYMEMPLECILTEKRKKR
MET, sequence (P08581 308-1390): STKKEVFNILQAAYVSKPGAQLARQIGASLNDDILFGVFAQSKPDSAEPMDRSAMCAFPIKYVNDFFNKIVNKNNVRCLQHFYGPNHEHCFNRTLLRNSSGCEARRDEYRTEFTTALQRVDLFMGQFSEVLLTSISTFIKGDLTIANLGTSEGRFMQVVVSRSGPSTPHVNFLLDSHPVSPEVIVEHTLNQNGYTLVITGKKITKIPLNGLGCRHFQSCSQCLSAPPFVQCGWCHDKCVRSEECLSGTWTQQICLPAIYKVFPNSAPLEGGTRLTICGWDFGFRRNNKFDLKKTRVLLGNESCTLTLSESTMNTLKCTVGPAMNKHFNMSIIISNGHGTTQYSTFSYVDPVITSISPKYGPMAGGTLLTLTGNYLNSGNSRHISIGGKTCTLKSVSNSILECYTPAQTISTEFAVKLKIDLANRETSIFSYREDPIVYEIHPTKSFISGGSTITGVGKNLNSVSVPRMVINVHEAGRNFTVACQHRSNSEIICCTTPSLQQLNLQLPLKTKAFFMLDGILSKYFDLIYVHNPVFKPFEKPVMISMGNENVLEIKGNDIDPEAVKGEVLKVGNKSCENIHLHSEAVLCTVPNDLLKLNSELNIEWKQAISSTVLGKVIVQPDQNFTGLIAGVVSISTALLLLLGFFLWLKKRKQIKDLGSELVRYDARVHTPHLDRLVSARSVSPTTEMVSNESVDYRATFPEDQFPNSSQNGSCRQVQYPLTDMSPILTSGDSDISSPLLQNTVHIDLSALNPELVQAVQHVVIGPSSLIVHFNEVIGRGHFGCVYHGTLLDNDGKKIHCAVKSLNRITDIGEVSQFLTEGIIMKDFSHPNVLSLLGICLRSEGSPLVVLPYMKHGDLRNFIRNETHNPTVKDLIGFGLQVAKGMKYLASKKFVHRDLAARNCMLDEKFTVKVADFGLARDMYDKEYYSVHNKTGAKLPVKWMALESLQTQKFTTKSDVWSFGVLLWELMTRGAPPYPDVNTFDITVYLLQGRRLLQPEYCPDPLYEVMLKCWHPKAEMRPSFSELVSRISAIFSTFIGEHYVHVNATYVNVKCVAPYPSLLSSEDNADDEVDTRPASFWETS

COc1ccc2cc3[n+](cc2c1OC)CCc1cc2c(cc1-3)OCO2 [BBR, Berberine]
IC50: 19.6 µM
